Consider 13 compounds from US6072051A, “Nucleoside derivatives and process for preparing the same” (priority 1995, dated 2000).

For data set [1], the system named is HBV. Put plainly: Test of Anti-HBV Activity in Hep G2 2.2.15 cell lines. The format is cell-based. Conditions: for EC50 / EC90: Hepatitis B virus, HepG2 2.2.15. The procedure:
(§1) The anti-HBV activity of the compounds according to the present invention, was tested in Hep G2 2.2.15 cell lines, as using 2',3'-dideoxycytidine as a control compound.

A short description of data set [2]: Toxicity (CC50) in Hep G2 2.2.15 cell lines, anti-HBV test. The data set is classed as cell-based. Conditions: human, hep g2 2.2.15 cells. The procedure:
as §1

For data set [3], the system named is HBV. Conditions: Proc. Natl. Acad. Sci. USA, 88, 8495 (1991); Biochem. Pharm., 47, 171 (1994); cited from earlier work.
Setting [4] is: Hep G2 2.2.15 cell lines, anti-HBV activity, read-out: EC50.
The mark [5] stands for this setting: Hep G2 2.2.15 cell lines, anti-HBV activity, read-out: EC90.

Where two headings read alike, the source gives them in different places.

For the compound `Cc1cn([C@@H]2C[C@](F)(CO)CO2)c(=O)[nH]c1=O` (relative stereo) [Compound 5, cis-2-(Thymin-1-yl)-4-fluoro-4-hydroxymethyltetrahydrofuran], the EC50 in the data set on HBV [1] (setting [4]) was 100 nM. Besides, in the data set with HBV [1] (setting [5]), the EC90 came out at 800 nM. Moreover, the “Sl (CC50 /EC90)” value with HBV [1] (human, hep g2 2.2.15 cells) amounted to 590. The same compound returned a CC50 in data set [2] of 0.472 mM.

`Cc1cn([C@H]2C[C@](F)(CO)CO2)c(=O)[nH]c1=O` (relative stereo) [Compound 6, trans-2-(Thymin-1-yl)-4-fluoro-4-hydroxymethyltetrahydrofuran]: the EC50 in the data set on HBV [1] (setting [4]) amounted to 200 nM. For the same compound, the EC90 with HBV [1] (setting [5]) turned out to be 1000 nM. Further, the “Sl (CC50 /EC90)” value in the data set on HBV [1] (human, hep g2 2.2.15 cells) was 2,321. The same compound gave a CC50 in data set [2] of 2.32 mM.

For the compound `Nc1ccn([C@@H]2C[C@](F)(CO)CO2)c(=O)n1` (relative stereo) [Compound 7, cis-2-(Cytosin-1-yl)-4-fluoro-4-hydroxymethyltetrahydrofuran], the EC50 with HBV [1] (setting [4]) worked out at 11 nM. The EC90 with HBV [1] (setting [5]) was found to be 143 nM. In the data set on HBV [1] (human, hep g2 2.2.15 cells), the “Sl (CC50 /EC90)” value is on record as 10,811. The midpoint of cytotoxicity in data set [2], the CC50, lay at 1.55 mM.

As to `Nc1ccn([C@H]2C[C@](F)(CO)CO2)c(=O)n1` (relative stereo) [Compound 8, trans-2-(Cytosin-1-yl)-4-fluoro-4-hydroxymethyltetrahydrofuran], the EC50 with HBV [1] (setting [4]) turned out to be 80 nM. The EC90 with HBV [1] (setting [5]) came to 522 nM. Also, the “Sl (CC50 /EC90)” value in the data set with HBV [1] (human, hep g2 2.2.15 cells) is 2,874. In data set [2], this compound came in with a CC50 of 1.5 mM.

As for `Nc1nc(=O)n([C@@H]2C[C@](F)(CO)CO2)cc1F` (relative stereo) [Compound 9, cis-2-(5-Fluorocytosin-1-yl)-4-fluoro-4-hydroxymethyltetrahydrofuran], the EC50 in the data set with HBV [1] (setting [4]) was found to be 800 nM. Besides, in the data set on HBV [1] (setting [5]), the EC90 amounted to 700 nM. The “Sl (CC50 /EC90)” value in the data set with HBV [1] (human, hep g2 2.2.15 cells) was 319. In addition, in data set [2], half-maximal cytotoxicity (CC50) was put at 2.23 mM.

For the compound `Nc1nc(=O)n([C@H]2C[C@](F)(CO)CO2)cc1F` (relative stereo) [Compound 10, trans-2-(5-Fluorocytosin-1-yl)-4-fluoro-4-hydroxymethyltetrahydrofuran], the EC50 in the data set with HBV [1] (setting [4]) was determined as 61 nM. For the same compound, in the data set on HBV [1] (setting [5]), the EC90 came to 835 nM. Besides, in the data set on HBV [1] (human, hep g2 2.2.15 cells), the “Sl (CC50 /EC90)” value is listed as 1,444. In data set [2], this compound registered a CC50 of 0.955 mM.

With `O=c1[nH]c(=O)n([C@@H]2C[C@](F)(CO)CO2)cc1I` (relative stereo) [Compound 15, cis-2-(5-Iodouracil-1-yl)-4-fluoro-4-hydroxymethyltetrahydrofuran], the EC50 in the data set on HBV [1] (setting [4]) stood at 600 nM. Moreover, in the data set with HBV [1] (setting [5]), the concentration for an effect of 90% (EC90) is 4400 nM. For the same compound, the “Sl (CC50 /EC90)” value in the data set with HBV [1] (human, hep g2 2.2.15 cells) was 501. In data set [2], this compound showed a CC50 of 2.2 mM.

With `O=c1[nH]c(=O)n([C@H]2C[C@](F)(CO)CO2)cc1I` (relative stereo) [Compound 16, trans-2-(5-iodouracil-1-yl)-4-fluoro-4-hydroxymethyltetrahydrofuran], the EC50 with HBV [1] (setting [4]) came to 800 nM. In the data set on HBV [1] (setting [5]), the EC90 was 5300 nM. Besides, the “Sl (CC50 /EC90)” value in the data set on HBV [1] (human, hep g2 2.2.15 cells) was determined as 85. This compound yielded a CC50 in data set [2] of 0.451 mM.

On to `Nc1ccn([C@H]2CS[C@@H](CO)O2)c(=O)n1` [2',3'-dideoxy-3'-thiacytidine], for which, in the data set with HBV [3], the “anti-HBV activity (reported)” value was “have anti-HBV activity”.

For the compound `Nc1nc(=O)n([C@@H]2CC[C@H](CO)O2)cc1F` [2', 3'-dideoxy-β-L-5-fluorocytidine], in the data set on HBV [3], the “anti-HBV activity (reported)” value is on record as “have anti-HBV activity”.

In the case of `Nc1ccn([C@@H]2CC[C@H](CO)O2)c(=O)n1` [2', 3'-dideoxy-β-L-cytidine], in the data set on HBV [3], the “anti-HBV activity (reported)” value is “have anti-HBV activity”.

Turning to `Nc1nc(=O)n([C@H]2CS[C@@H](CO)O2)cc1F` [5-fluoro-2', 3'-dideoxy-3'-thiacytidine], in the data set on HBV [3], the “anti-HBV activity (reported)” value was “have anti-HBV activity”.

For `Nc1ccn([C@H]2CC[C@@H](CO)O2)c(=O)n1` [Control compound, 2',3'-dideoxycytidine, reference compound], in the data set with HBV [1], the response was half-maximal at 7570 nM (EC50) and the EC90 worked out at 35000 nM. In the data set on HBV [1] (ratio CC50 /EC90, Hep G2 2.2.15 cell lines), the “Sl (CC50 /EC90)” value amounted to 30.811. The compound also came in with a CC50 in data set [2] of 1.08 mM.

For orientation: EC50 means the midpoint of the concentration-response curve. In general, EC90 refers to the concentration at which the effect reaches the 90% level. By CC50 is commonly meant the concentration at which the toxic effect on the cells reaches its halfway point. High values mean better tolerance by the cells, low ones harm at low concentration.
